Assay results taken from patent US8962842B2, “2-pyridone antimicrobial compositions” (priority 2010, dated 2015).
Where two headings read alike, the source gives them in different places.

What was measured:
[1] = tested on: Burkholderia cepacia (5 strains); assay: MIC range, broader panel of Quotient Bioresearch strains (Table 4); assay type: cell-based; conditions: for MIC50: read-out: MIC Range Median, Burkholderia cepacia (5 strains)
[2] = Metabolic stability in liver microsomes +/- S9 fraction (Table 8); assay type: in vitro ADME; conditions: 1 μM
Experimental: Metabolic stability of a select number of examples was tested in liver microsomes+/−addition of S9 fraction as described by Kuhnz, W. and Gieschen, H. (1998), Drug Metab. Dispos., 1120-1127. Test concentration was 1 μM and HPLC/MS-MS was used for detection.

[3] = tested on: Enterococcus faecium (3 strains); assay: MIC range, broader panel of Quotient Bioresearch strains (Table 3); conditions: for MIC: read-out: MIC Range Low, Enterococcus faecium (3 strains); for MIC50: read-out: MIC Range Median, Enterococcus faecium (3 strains)
[4] = tested on: Haemophilus influenza (5 strains); assay: MIC range, broader panel of Quotient Bioresearch strains (Table 4); assay type: cell-based, Haemophilus influenzae; conditions: for MIC50: 16 h, Median of the strain panel
[5] = tested on: Acinetobacter baumannii, quinolone-resistant strains (Quotient Bioresearch catalogue); assay: MIC against pathogens resistant against quinolones (Table 5); assay type: cell-based; conditions: Acinetobacter baumannii, GN54
[6] = tested on: Streptococcus pyogenes (4 strains); assay: MIC range, broader panel of Quotient Bioresearch strains (Table 3); conditions: for MIC50: read-out: MIC Range Median, Streptococcus pyogenes (4 strains)
[7] = tested on: Staphylococcus aureus (16 strains); assay: as above; conditions: for MIC50: read-out: MIC Range Median, Staphylococcus aureus (16 strains)
[8] = target: bacterial topoisomerase IV (Escherichia coli, UniProt P0AFI2+P20083); assay: Inhibition of topoisomerases activity in vitro, Topogen protocol TG1007 (Table 7); assay type: biochemical
Sequence of bacterial topoisomerase IV (P20083 whole entry): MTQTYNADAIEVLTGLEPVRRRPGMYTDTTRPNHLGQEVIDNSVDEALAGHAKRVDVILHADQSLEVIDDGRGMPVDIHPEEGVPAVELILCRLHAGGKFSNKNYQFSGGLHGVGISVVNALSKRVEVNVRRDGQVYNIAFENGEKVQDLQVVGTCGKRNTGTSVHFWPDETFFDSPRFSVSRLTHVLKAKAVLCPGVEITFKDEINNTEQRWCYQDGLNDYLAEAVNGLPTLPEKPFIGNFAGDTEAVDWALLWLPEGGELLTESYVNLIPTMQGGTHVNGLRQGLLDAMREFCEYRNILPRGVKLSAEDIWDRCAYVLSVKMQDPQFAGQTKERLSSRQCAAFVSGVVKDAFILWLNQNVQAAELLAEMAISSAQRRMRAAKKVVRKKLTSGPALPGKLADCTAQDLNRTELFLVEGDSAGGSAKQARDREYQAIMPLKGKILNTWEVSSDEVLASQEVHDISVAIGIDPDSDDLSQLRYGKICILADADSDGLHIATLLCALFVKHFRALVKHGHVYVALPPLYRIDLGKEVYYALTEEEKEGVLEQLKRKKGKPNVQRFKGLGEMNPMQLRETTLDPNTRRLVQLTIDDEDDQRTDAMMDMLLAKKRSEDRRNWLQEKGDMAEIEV
Sequence of bacterial topoisomerase IV (P0AFI2 whole entry): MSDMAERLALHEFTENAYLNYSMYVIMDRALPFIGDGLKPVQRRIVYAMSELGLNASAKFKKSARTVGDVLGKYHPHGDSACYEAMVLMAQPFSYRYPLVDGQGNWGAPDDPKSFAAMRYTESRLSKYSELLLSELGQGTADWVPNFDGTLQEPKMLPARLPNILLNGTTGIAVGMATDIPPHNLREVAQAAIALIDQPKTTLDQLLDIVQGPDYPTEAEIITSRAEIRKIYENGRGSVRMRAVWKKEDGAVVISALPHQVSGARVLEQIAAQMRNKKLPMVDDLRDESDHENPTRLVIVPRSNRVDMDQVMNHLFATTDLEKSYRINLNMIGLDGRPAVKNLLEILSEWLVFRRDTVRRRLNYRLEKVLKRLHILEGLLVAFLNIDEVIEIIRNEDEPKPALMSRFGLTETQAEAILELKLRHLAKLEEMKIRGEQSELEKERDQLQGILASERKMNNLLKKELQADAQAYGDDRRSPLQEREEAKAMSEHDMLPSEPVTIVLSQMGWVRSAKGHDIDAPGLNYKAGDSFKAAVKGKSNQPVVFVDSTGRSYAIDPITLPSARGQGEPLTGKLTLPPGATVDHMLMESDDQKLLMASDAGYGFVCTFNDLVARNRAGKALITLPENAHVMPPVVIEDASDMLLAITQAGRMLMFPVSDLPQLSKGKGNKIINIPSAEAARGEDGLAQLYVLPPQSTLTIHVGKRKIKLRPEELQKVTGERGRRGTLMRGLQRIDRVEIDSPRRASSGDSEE

[9] = tested on: Klebsiella pneumonia (4 strains); assay: MIC range, broader panel of Quotient Bioresearch strains (Table 4); assay type: cell-based; conditions: Klebsiella pneumoniae; for MIC50: read-out: MIC Range Median, Klebsiella pneumonia (4 strains)
[10] = tested on: Acinetobacter baumannii (12 strains); assay: as above; assay type: cell-based; conditions: for MIC50: read-out: MIC Range Median, Acinetobacter baumannii (12 strains)
[11] = tested on: Escherichia coli (6 strains); assay: as above; assay type: cell-based; conditions: for MIC50: read-out: MIC Range Median, Escherichia coli (6 strains)
[12] = tested on: Pseudomonas aeruginosa (12 strains); assay: as above; assay type: cell-based; conditions: for MIC50: read-out: MIC Range Median, Pseudomonas aeruginosa (12 strains)
[13] = physchem; assay type: physicochemical; conditions: thermodynamic from solid
Experimental: The solutions were incubated at room temperature for 24 hours before quantification by HPLC detection. Aqueous solubility was evaluated in simulated gastric fluid (SGF), simulated intestinal fluid (SIF) and phosphate buffer saline (PBS) pH 7.4. Aqueous solubility is expressed in Table 11 as mean solubility in μM.

[14] = tested on: Group C Streptococcus (4 strains); assay: MIC range, broader panel of Quotient Bioresearch strains (Table 3); conditions: for MIC50: read-out: MIC Range Median, Group C Streptococcus (4 strains)
[15] = tested on: Streptococcus pneumonia (5 strains); assay: as above; conditions: Streptococcus pneumoniae; for MIC: read-out: MIC Range Low, Streptococcus pneumonia (5 strains); for MIC50: read-out: MIC Range Median, Streptococcus pneumonia (5 strains)
[16] = target: T1, human topoisomerase I (Homo sapiens, UniProt P11387); assay: Inhibition of topoisomerases activity in vitro, Topogen protocol TG1015 (Table 7); assay type: biochemical; conditions: read-out: IC50 hTopo I Assay
T1 construct: purchased Topogen Inc., Port Orange, USA TG1015
T1 sequence (P11387 1-765): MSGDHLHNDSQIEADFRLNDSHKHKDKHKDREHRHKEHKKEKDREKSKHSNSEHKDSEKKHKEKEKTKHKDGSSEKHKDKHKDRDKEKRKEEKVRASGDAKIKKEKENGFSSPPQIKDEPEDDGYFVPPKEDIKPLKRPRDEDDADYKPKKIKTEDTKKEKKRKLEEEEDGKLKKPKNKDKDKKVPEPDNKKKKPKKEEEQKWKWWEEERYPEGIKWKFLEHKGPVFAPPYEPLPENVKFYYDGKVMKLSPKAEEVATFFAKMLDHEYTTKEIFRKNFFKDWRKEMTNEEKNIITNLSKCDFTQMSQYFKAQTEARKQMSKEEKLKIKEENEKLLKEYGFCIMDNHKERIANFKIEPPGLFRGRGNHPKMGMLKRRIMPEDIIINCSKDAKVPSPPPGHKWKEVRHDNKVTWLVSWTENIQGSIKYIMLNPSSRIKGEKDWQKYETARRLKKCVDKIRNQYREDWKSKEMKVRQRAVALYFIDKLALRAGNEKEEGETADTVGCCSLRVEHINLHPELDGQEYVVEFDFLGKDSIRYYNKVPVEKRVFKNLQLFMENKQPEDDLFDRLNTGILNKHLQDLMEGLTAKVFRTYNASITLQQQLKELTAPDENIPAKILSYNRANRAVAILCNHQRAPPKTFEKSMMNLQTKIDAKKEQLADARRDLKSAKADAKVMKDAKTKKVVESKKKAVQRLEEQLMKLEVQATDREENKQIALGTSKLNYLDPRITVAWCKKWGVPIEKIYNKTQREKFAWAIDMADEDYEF

[17] = target: bacterial gyrase (Escherichia coli, UniProt P0AES4+P0AES6); assay: Inhibition of topoisomerases activity in vitro, Topogen protocol TG1003 (Table 7); assay type: biochemical
Sequence of bacterial gyrase (P0AES4 whole entry, one chain of several): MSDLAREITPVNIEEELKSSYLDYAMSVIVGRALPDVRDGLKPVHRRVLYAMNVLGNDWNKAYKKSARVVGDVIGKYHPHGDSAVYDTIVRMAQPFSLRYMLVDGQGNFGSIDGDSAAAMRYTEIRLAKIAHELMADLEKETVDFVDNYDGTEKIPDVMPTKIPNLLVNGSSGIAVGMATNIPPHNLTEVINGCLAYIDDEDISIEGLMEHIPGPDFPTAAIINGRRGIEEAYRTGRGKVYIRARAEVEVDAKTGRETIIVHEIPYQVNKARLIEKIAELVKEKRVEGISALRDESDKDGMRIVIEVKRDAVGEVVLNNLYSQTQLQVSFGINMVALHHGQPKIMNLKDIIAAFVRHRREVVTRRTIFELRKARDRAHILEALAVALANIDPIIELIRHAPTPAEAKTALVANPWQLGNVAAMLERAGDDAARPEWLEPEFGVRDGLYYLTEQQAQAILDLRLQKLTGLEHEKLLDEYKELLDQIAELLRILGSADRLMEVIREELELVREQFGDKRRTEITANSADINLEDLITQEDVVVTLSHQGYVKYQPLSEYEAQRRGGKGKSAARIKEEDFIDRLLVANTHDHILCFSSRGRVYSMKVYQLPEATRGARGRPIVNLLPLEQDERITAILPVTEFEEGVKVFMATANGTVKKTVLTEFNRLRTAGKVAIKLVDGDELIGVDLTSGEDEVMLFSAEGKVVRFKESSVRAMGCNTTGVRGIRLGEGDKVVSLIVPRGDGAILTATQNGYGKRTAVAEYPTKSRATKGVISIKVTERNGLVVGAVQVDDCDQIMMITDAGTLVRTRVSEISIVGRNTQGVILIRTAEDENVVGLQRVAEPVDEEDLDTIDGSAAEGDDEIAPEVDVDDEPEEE

[18] = tested on: Enterococcus faecalis (5 strains); assay: MIC range, broader panel of Quotient Bioresearch strains (Table 3); conditions: for MIC50: read-out: MIC Range Median, Enterococcus faecalis (5 strains)
[19] = tested on: Bacterial strains injected into thigh muscles; assay type: in vivo, mice
[20] = read-out: MIC Range High, Burkholderia cepacia (5 strains)
[21] = read-out: MIC Range Low, Burkholderia cepacia (5 strains)
[22] = High of the strain panel, read-out: MIC Range High, Haemophilus influenza (5 strains)
[23] = Low of the strain panel, read-out: MIC Range Low, Haemophilus influenza (5 strains)
[24] = read-out: MIC Range High, Streptococcus pyogenes (4 strains)
[25] = read-out: MIC Range Low, Streptococcus pyogenes (4 strains)
[26] = read-out: MIC Range Low, Staphylococcus aureus (16 strains)
[27] = read-out: MIC Range High, Klebsiella pneumonia (4 strains)
[28] = read-out: MIC Range Low, Klebsiella pneumonia (4 strains)
[29] = read-out: MIC Range High, Acinetobacter baumannii (12 strains)
[30] = read-out: MIC Range Low, Acinetobacter baumannii (12 strains)
[31] = read-out: MIC Range High, Escherichia coli (6 strains)
[32] = read-out: MIC Range Low, Escherichia coli (6 strains)
[33] = read-out: MIC Range High, Pseudomonas aeruginosa (12 strains)
[34] = read-out: MIC Range Low, Pseudomonas aeruginosa (12 strains)
[35] = read-out: MIC Range High, Group C Streptococcus (4 strains)
[36] = read-out: MIC Range Low, Group C Streptococcus (4 strains)
[37] = read-out: MIC Range High, Enterococcus faecalis (5 strains)
[38] = read-out: MIC Range Low, Enterococcus faecalis (5 strains)

## Cc1c(-c2cc(F)c(N)cc2F)ccn2c(=O)c(C(=O)[O-])cc(C3CC3)c12.[K+] [Example 28 K salt, potassium 8-(4-amino-2,5-difluoro-phenyl)-1-cyclopropyl-9-methyl-4-oxo-4H-quinolizine-3-carboxylate]
[1]; [20]
  MIC: 0.5 µg/mL
[1]; [21]
  MIC: 0.12 µg/mL
[1]
  MIC50: 0.25 µg/mL
[2]; Liver microsomes + S9, human
  Mean Parent Remaining: 93%
[2]; Liver microsomes + S9, mouse
  Mean Parent Remaining: 48%
[2]; Liver microsomes, human
  Mean Parent Remaining: 97%
[2]; Liver microsomes, mouse
  Mean Parent Remaining: 30%
[3]
  MIC: 0.12 µg/mL
  MIC50: 0.25 µg/mL
[4]
  MIC50: ≤ 0.015 µg/mL
[4]; [22]
  MIC: ≤ 0.015 µg/mL
[4]; [23]
  MIC: ≤ 0.015 µg/mL
[5]
  MIC: 2 µg/mL
[6]; [24]
  MIC: 0.06 µg/mL
[6]; [25]
  MIC: 0.03 µg/mL
[6]
  MIC50: 0.06 µg/mL
[7]; read-out: MIC Range High, Staphylococcus aureus (16 strains)
  MIC: 0.12 µg/mL
[7]; [26]
  MIC: ≤ 0.015 µg/mL
[7]
  MIC50: 0.06 µg/mL
[8]
  IC50: ≤ 8.45 µM
[9]; [27]
  MIC: > 32 µg/mL
[9]; [28]
  MIC: 0.12 µg/mL
[9]
  MIC50: 18 µg/mL
[10]; [29]
  MIC: 16 µg/mL
[10]; [30]
  MIC: 0.06 µg/mL
[10]
  MIC50: 8 µg/mL
[11]; [31]
  MIC: 32 µg/mL
[11]; [32]
  MIC: 0.03 µg/mL
[11]
  MIC50: 16 µg/mL
[12]; [33]
  MIC: > 32 µg/mL
[12]; [34]
  MIC: 1 µg/mL
[12]
  MIC50: 6 µg/mL
[13]; fassgf or other biorelevant
  solubility at 24 h: 153 µM
[13]; pH 7.4, aqueous buffer
  solubility at 24 h: 6 µM
[13]; simulated gastric fluid
  solubility at 24 h: 12 µM
[14]; [35]
  MIC: 0.06 µg/mL
[14]; [36]
  MIC: 0.03 µg/mL
[14]
  MIC50: 0.045 µg/mL
[15]
  MIC: 0.03 µg/mL
  MIC50: 0.06 µg/mL
[16]
  IC50: 135 µM
[17]
  IC50: 0.68 µM
[18]; [37]
  MIC: 0.5 µg/mL
[18]; [38]
  MIC: ≤ 0.015 µg/mL
[18]
  MIC50: 0.25 µg/mL

## O=C(O)c1cn(C2CC2)c2cc(N3CCNCC3)c(F)cc2c1=O [Ciprofloxacin, reference compound]
[19]; MRSA ATCC 43300, mouse thigh, 20 mg/kg i.v. TDS
  Log reduction (LgR) from vehicle control (CFU/g): 2.36
[16]
  IC50: > 150 µM

## Cc1c(-c2ccc(N)nc2)ccn2c(=O)c(C(=O)[O-])cc(C3CC3)c12.[K+] [Example 21 K salt, potassium 8-(6-amino-pyridin-3-yl)-1-cyclopropyl-9-methyl-4-oxo-4H-quinolizine-3-carboxylate]
[1]; [20]
  MIC: 0.25 µg/mL
[1]; [21]
  MIC: 0.12 µg/mL
[1]
  MIC50: 0.25 µg/mL
[2]; Liver microsomes + S9, human
  Mean Parent Remaining: 93%
[2]; Liver microsomes + S9, mouse
  Mean Parent Remaining: 97%
[2]; Liver microsomes, human
  Mean Parent Remaining: 85%
[2]; Liver microsomes, mouse
  Mean Parent Remaining: 87%
[3]
  MIC: 0.25 µg/mL
  MIC50: 1 µg/mL
[4]
  MIC50: ≤ 0.015 µg/mL
[4]; [22]
  MIC: ≤ 0.015 µg/mL
[4]; [23]
  MIC: ≤ 0.015 µg/mL
[5]
  MIC: 4 µg/mL
[6]; [24]
  MIC: 0.12 µg/mL
[6]; [25]
  MIC: 0.06 µg/mL
[6]
  MIC50: 0.06 µg/mL
[7]; [26]
  MIC: ≤ 0.015 µg/mL
[7]
  MIC50: 0.25 µg/mL
[8]
  IC50: ≤ 2.33 µM
[9]; [27]
  MIC: 32 µg/mL
[9]; [28]
  MIC: 0.06 µg/mL
[9]
  MIC50: 9 µg/mL
[10]; [29]
  MIC: 16 µg/mL
[10]; [30]
  MIC: 0.03 µg/mL
[10]
  MIC50: 4 µg/mL
[11]; [31]
  MIC: 32 µg/mL
[11]; [32]
  MIC: ≤ 0.015 µg/mL
[11]
  MIC50: 16 µg/mL
[12]; [33]
  MIC: 32 µg/mL
[12]; [34]
  MIC: 0.5 µg/mL
[12]
  MIC50: 8 µg/mL
[13]; fassgf or other biorelevant
  solubility at 24 h: 200 µM
[13]; pH 7.4, aqueous buffer
  solubility at 24 h: 200 µM
[13]; simulated gastric fluid
  solubility at 24 h: 200 µM
[19]; E. coli ATCC 25922, mouse thigh, 30 mg/kg TDS p.o.
  Log reduction (LgR) from vehicle control (CFU/g): 3.13
[19]; MRSA ATCC 43300, mouse thigh, 30 mg/kg TDS p.o.
  Log reduction (LgR) from vehicle control (CFU/g): 4.93
[14]; [35]
  MIC: 0.06 µg/mL
[14]; [36]
  MIC: 0.03 µg/mL
[14]
  MIC50: 0.03 µg/mL
[15]
  MIC: 0.06 µg/mL
  MIC50: 0.06 µg/mL
[17]
  IC50: ≤ 1.49 µM
[18]; [37]
  MIC: 2 µg/mL
[18]; [38]
  MIC: 0.03 µg/mL
[18]
  MIC50: 0.12 µg/mL
